Our source for the GI50 and TGI values is PubChem BioAssay (NCI).

Among the test systems are IGROV1 ovarian; HCT-15 colon; SF-295 CNS; RPMI-8226 leukemia; A498 renal; SK-MEL-2 melanoma; MDA-MB-231 breast; HS 578T breast.
What all share (experiment): DTP human tumour cell line panel, 48 h

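Interpolation was linear, between the two tested concentrations surrounding the appropriate level; five concentrations were tested over 48 hours in 96-well plates. GI50 marks 50% less growth. At the TGI there is no net growth.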 Bounds are passed on as bounds.

Usually GI50 stands for the concentration at which growth is held to half of that of the control. What is called TGI is the concentration at which net growth stops. A lower TGI goes with more potent growth arrest. `Cc1nc(N)sc1C(=O)Nc1cc(C(=O)NCCCN(C)C)n(C)c1`: the GI50 with IGROV1 ovarian was above 100 µM; in the assay on HCT-15 colon it was above 100 µM; in the assay with SF-295 CNS, above 100 µM; in the assay on RPMI-8226 leukemia, 60.1 µM; in the assay with A498 renal it was above 100 µM; in the assay with SK-MEL-2 melanoma, above 100 µM. In the assay on MDA-MB-231 breast, the GI50 is above 100 µM. Besides, the TGI in the assay on IGROV1 ovarian, in the assay on HCT-15 colon, with SF-295 CNS, in the assay on RPMI-8226 leukemia, in the assay with A498 renal and in the assay with SK-MEL-2 melanoma was above 100 µM each time. This molecule also yielded a TGI in the assay on MDA-MB-231 breast above 100 µM.

`COc1ccc2c(c1)[n+](=O)c(C(=O)/C=C/c1cc(OC)c(OC)c(OC)c1)c(C)n2[O-]`: the GI50 was 20.7 µM in the assay on IGROV1 ovarian; 29.1 µM with HCT-15 colon; 27.1 µM in the assay with SF-295 CNS; 47.2 µM in the assay on RPMI-8226 leukemia; 16.4 µM in the assay with A498 renal; 33.7 µM in the assay with SK-MEL-2 melanoma. The GI50 with HS 578T breast was 11.8 µM; in the assay with MDA-MB-231 breast it was 13.5 µM. For the same molecule, the TGI is 42 µM in the assay on IGROV1 ovarian; above 100 µM with HCT-15 colon; above 100 µM in the assay on SF-295 CNS; above 100 µM in the assay on RPMI-8226 leukemia; 57.5 µM with A498 renal; above 100 µM in the assay with SK-MEL-2 melanoma. For the same molecule, the TGI in the assay with HS 578T breast stood at 34.5 µM; in the assay on MDA-MB-231 breast, 35.2 µM.

As for `O=C(OCc1ccc2c(Cl)cc(Cl)c(O)c2n1)c1cc2ccccc2[nH]1`, the GI50 in the assay on IGROV1 ovarian was 0.219 µM; in the assay with HCT-15 colon, 0.217 µM; with SF-295 CNS, 1.64 µM; with RPMI-8226 leukemia it was 0.279 µM; in the assay with A498 renal, 1.63 µM; in the assay with SK-MEL-2 melanoma, 1.47 µM. For the same molecule, the GI50 with HS 578T breast is 1.62 µM; in the assay on MDA-MB-231 breast, 0.422 µM. For the same molecule, the TGI with IGROV1 ovarian turned out to be 0.5 µM; in the assay with HCT-15 colon, 0.517 µM; with SF-295 CNS it was 3.31 µM; with RPMI-8226 leukemia, 0.828 µM; with A498 renal it was 3 µM; with SK-MEL-2 melanoma, 3.25 µM. The values for the TGI in the assay with HS 578T breast and with MDA-MB-231 breast were 4.48 µM and 1.52 µM, respectively.

As to `COc1ccc(-c2csc(-c3cc(Cl)cc(Cl)c3Cl)n2)cc1`, the GI50 is 56.8 µM in the assay on IGROV1 ovarian; 73.5 µM in the assay on HCT-15 colon; 57.8 µM with SF-295 CNS; 67 µM in the assay on RPMI-8226 leukemia; above 100 µM in the assay with A498 renal; above 100 µM in the assay on SK-MEL-2 melanoma. Also, the GI50 with HS 578T breast is 46.8 µM; in the assay with MDA-MB-231 breast, 60 µM. For the same molecule, the TGI with IGROV1 ovarian, in the assay with HCT-15 colon, with SF-295 CNS, with RPMI-8226 leukemia, with A498 renal and with SK-MEL-2 melanoma was above 100 µM throughout. The TGI with HS 578T breast and in the assay on MDA-MB-231 breast was above 100 µM in each case.

In the case of `Nc1nnc(Cn2c(-c3ccccc3)nc3ccc(Br)cc3c2=O)s1`, the GI50 with IGROV1 ovarian is 18.3 µM; in the assay on HCT-15 colon it was 31.6 µM; with SF-295 CNS it was 26.2 µM; in the assay with RPMI-8226 leukemia, 18.1 µM; in the assay on A498 renal, 15.1 µM; with SK-MEL-2 melanoma it was above 100 µM. Also, the GI50 in the assay on HS 578T breast was 41.4 µM; in the assay on MDA-MB-231 breast, 36.2 µM. The total growth inhibition concentration (TGI) in the assay with IGROV1 ovarian was above 100 µM; in the assay with HCT-15 colon, above 100 µM; in the assay on SF-295 CNS, above 100 µM; with RPMI-8226 leukemia it was 62.8 µM; with A498 renal, 74 µM; in the assay on SK-MEL-2 melanoma, above 100 µM. Further, the TGI in the assay with HS 578T breast and with MDA-MB-231 breast was above 100 µM in each case.

As to `CCCCCCCC(=O)SCC/C=C/[C@@H]1CC(=O)NCc2nc(co2)C2=N[C@@](C)(CS2)C(=O)N[C@@H](C(C)C)C(=O)O1`, the GI50 in the assay with IGROV1 ovarian is 0.0114 µM; in the assay with HCT-15 colon, 0.233 µM; in the assay on SF-295 CNS, 0.0264 µM; in the assay on RPMI-8226 leukemia, 0.09 µM; with A498 renal, 0.0096 µM; with SK-MEL-2 melanoma, 0.0132 µM. In addition, the GI50 with HS 578T breast was 0.0125 µM; in the assay on MDA-MB-231 breast, 0.054 µM. The TGI with IGROV1 ovarian is 0.163 µM; in the assay on HCT-15 colon, above 20.4 µM; with SF-295 CNS it was 0.282 µM; in the assay with RPMI-8226 leukemia, above 50 µM; in the assay with A498 renal it was 0.0396 µM; in the assay on SK-MEL-2 melanoma it was 0.331 µM. This molecule yielded a TGI in the assay with MDA-MB-231 breast of 8.13 µM.

For the molecule `COc1ccc(-c2ccc(/C=N/n3c(C)nn(CN4CCN(C)CC4)c3=S)o2)c([N+](=O)[O-])c1`, the GI50 is 63.4 µM in the assay on IGROV1 ovarian, 28.7 µM with HCT-15 colon, 18.3 µM in the assay on SF-295 CNS and 20.6 µM in the assay with RPMI-8226 leukemia. Moreover, the TGI in the assay with IGROV1 ovarian is above 100 µM; in the assay with HCT-15 colon it was above 100 µM; with SF-295 CNS it was 48.2 µM; with RPMI-8226 leukemia, 64.6 µM.

`COc1ccc(C(=O)c2cc3c(N)c(C(=O)Nc4cccc(Cl)c4C)sc3nc2C)cc1`: the GI50 with IGROV1 ovarian is 0.145 µM; in the assay with HCT-15 colon, 0.101 µM; in the assay with SF-295 CNS it was 0.0833 µM; in the assay with RPMI-8226 leukemia, 0.0918 µM; with A498 renal, 0.0691 µM; in the assay with SK-MEL-2 melanoma, 0.215 µM. Further, the GI50 in the assay with HS 578T breast was 0.0832 µM; in the assay on MDA-MB-231 breast, 0.142 µM. Also, the TGI in the assay on IGROV1 ovarian is above 25 µM; with HCT-15 colon it was above 25 µM; in the assay with SF-295 CNS, above 25 µM; in the assay with A498 renal, 0.558 µM; with SK-MEL-2 melanoma, above 25 µM; in the assay with HS 578T breast, above 25 µM. Also, in the assay on MDA-MB-231 breast, the TGI is above 25 µM.

On to `CN(CCCl)c1ccc(/C=C/C2=[N+](C)c3ccccc3C2(C)C)cc1`, for which the GI50 is 1.73 µM with IGROV1 ovarian; 6.3 µM in the assay on HCT-15 colon; 0.728 µM in the assay with SF-295 CNS; 0.331 µM in the assay with RPMI-8226 leukemia; 1.34 µM with A498 renal; 1.33 µM with SK-MEL-2 melanoma. For the same molecule, the GI50 in the assay on HS 578T breast is 1.53 µM; in the assay on MDA-MB-231 breast, 0.579 µM. Moreover, the TGI stood at 18.6 µM in the assay with IGROV1 ovarian; 21.7 µM in the assay with HCT-15 colon; 5.14 µM in the assay with SF-295 CNS; 2.46 µM with RPMI-8226 leukemia; 12.6 µM in the assay on A498 renal; 5.62 µM in the assay with SK-MEL-2 melanoma. Also, the values for the TGI with HS 578T breast and with MDA-MB-231 breast were 32.1 µM and 5.59 µM, respectively.
